# Data from patent publication US20070202116A1, “Treatment of micro-organism infection” (priority 2001, published 2007).
# Like-named read-outs stand apart in the source and are kept apart here.
# How the values were obtained:
# [1] = tested on: EMRSA strains, vancomycin resistant subpopulations, Linzolid resistant strains; assay: Checkerboard MIC / FIC / FIX of vancomycin and Aurograb (Tables 9, 10); type: cell-based, S. aureus; settings: for MIC In combination: VAN with Aurograb; for MIC: Staphylococcus aureus
# Procedure: In order to determine the Minimum Inhibitory Concentration (MIC), the Fractional Inhibitory Concentration (FIC) and the FIX (fractional inhibitory index), the following was method was used.
# The cells were diluted in Isosensitest Broth (Oxoid, UK) to give a final inoculum of […] cells per mL. […] To this was added exogenous Aurograb in the range 0.3-25 μg/ml in a checkerboard formation. A negative control series was also prepared containing Aurograb formulation buffer alone. Cultures were incubated for 48 hours at 37° C.
# The minimum inhibitory concentration (MIC) was defined as the lowest concentration of agent at which no bacterial growth occurred and was determined by spectrophotometric evaluation of the lack of turbidity (growth) in culture.
# Fractional inhibitory concentrations (FIC) and FIX values were calculated. Synergistic activity between the two agents was defined as an FIX value ≦0.5. Indifferent activity was defined as a value of 0.5-4, and a value of ≧4 defined antagonism.
# The MIC (Alone) column indicates the minimum inhibitory concentration of the agent when administered alone. The MIC (In combination) column indicates the minimum inhibitory concentration of each drug when used in combination.
# EMRSA-15 [2] = type: in vivo, S. aureus; settings: for Survivors at 24 h (n = 10): 8×10^7 cfu; for Mortality: 10 mice
# Procedure: Method: 60 female CD-I mice (22-24 g) were given S. aureus (a fresh clinical isolate of EMRSA-15) at a dose of 8×10^7 cfu in a 100 μl iv bolus.
# All mice were terminated at 48 hours for culture of kidney, liver and spleen. Mice fatalities prior to the 48 hour cull were not subject to organ colony counts.
# EMRSA-15 [3] = type: in vivo, S. aureus; settings: Group 3: Vancomycin 6 mg/kg alone iv
# Procedure: Methods: 60 female CD-1 mice (22-24 g) were given 1×10^7 cfu of EMRSA-15 as a 100 μl iv bolus.
# All mice were terminated at 48 hours for culture of kidney, liver and spleen.
# Results: expressed as log cfu per gram of tissue, unless the majority of mice (>5) were cleared (ie organs were culture-negative). N/A=not applicable. (Table 7)
smiles,measurement,setting,value
"CN[C@H](CC(C)C)C(=O)N[C@H]1C(=O)N[C@@H](CC(N)=O)C(=O)N[C@H]2C(=O)N[C@H]3C(=O)N[C@H](C(=O)N[C@H](C(=O)O)c4cc(O)cc(O)c4-c4cc3ccc4O)[C@H](O)c3ccc(c(Cl)c3)Oc3cc2cc(c3O[C@@H]2O[C@H](CO)[C@@H](O)[C@H](O)[C@H]2O[C@H]2C[C@](C)(N)[C@H](O)[C@H](C)O2)Oc2ccc(cc2Cl)[C@H]1O [Vancomycin, vancomycin]",MIC In combination,[1]; EMRSA strain 1,0.03 µg/mL
same,MIC In combination,[1]; EMRSA strain 1A,1 µg/mL
same,MIC In combination,[1]; EMRSA strain 2,0.03 µg/mL
same,MIC In combination,[1]; EMRSA strain 2A,1 µg/mL
same,MIC In combination,[1]; EMRSA strain 3,0.03 µg/mL
same,MIC In combination,[1]; EMRSA strain 4,0.03 µg/mL
same,MIC In combination,[1]; EMRSA strain 5,0.03 µg/mL
same,MIC In combination,[1]; EMRSA strain 6,0.125 µg/mL
same,MIC In combination,[1]; EMRSA strain 7,0.03 µg/mL
same,MIC In combination,[1]; EMRSA strain 8,0.03 µg/mL
same,MIC In combination,[1]; EMRSA strain 8A,0.03 µg/mL
same,MIC In combination,[1]; EMRSA strain 9,0.0125 µg/mL
same,MIC In combination,[1]; EMRSA strain 10,0.03 µg/mL
same,MIC In combination,[1]; EMRSA strain 11,0.03 µg/mL
same,MIC In combination,[1]; EMRSA strain 11A,1 µg/mL
same,MIC In combination,[1]; EMRSA strain 12,0.03 µg/mL
same,MIC In combination,[1]; EMRSA strain 12A,0.03 µg/mL
same,MIC In combination,[1]; EMRSA strain 13,0.03 µg/mL
same,MIC In combination,[1]; EMRSA strain 14,0.03 µg/mL
same,MIC In combination,[1]; EMRSA strain 15,0.03 µg/mL
same,MIC In combination,[1]; EMRSA strain 15A,0.03 µg/mL
same,MIC In combination,[1]; EMRSA strain 16,0.03 µg/mL
same,MIC In combination,[1]; EMRSA strain 17,1 µg/mL
same,MIC In combination,[1]; NARSA 1 (Hiramatsu),2 µg/mL
same,MIC In combination,[1]; NARSA 2 (Hiramatsu),0.5 µg/mL
same,MIC In combination,[1]; NARSA 12 (France),1 µg/mL
same,MIC In combination,[1]; NARSA 17 (New York),2 µg/mL
same,MIC In combination,[1]; NARSA 119 (Linezolid R),1 µg/mL
same,MIC In combination,[1]; NARSA 120 (Linezolid R),1 µg/mL
same,MIC In combination,[1]; NARSA 121 (Linezolid R),1 µg/mL
same,MIC,"[1]; read-out: MIC Alone, EMRSA strain 1",0.5 µg/mL
same,MIC,"[1]; read-out: MIC Alone, EMRSA strain 1A",8 µg/mL
same,MIC,"[1]; read-out: MIC Alone, EMRSA strain 2",0.5 µg/mL
same,MIC,"[1]; read-out: MIC Alone, EMRSA strain 2A",8 µg/mL
same,MIC,"[1]; read-out: MIC Alone, EMRSA strain 3",0.5 µg/mL
same,MIC,"[1]; read-out: MIC Alone, EMRSA strain 4",0.5 µg/mL
same,MIC,"[1]; read-out: MIC Alone, EMRSA strain 5",0.5 µg/mL
same,MIC,"[1]; read-out: MIC Alone, EMRSA strain 6",0.5 µg/mL
same,MIC,"[1]; read-out: MIC Alone, EMRSA strain 7",0.5 µg/mL
same,MIC,"[1]; read-out: MIC Alone, EMRSA strain 8",0.5 µg/mL
same,MIC,"[1]; read-out: MIC Alone, EMRSA strain 8A",0.5 µg/mL
same,MIC,"[1]; read-out: MIC Alone, EMRSA strain 9",0.5 µg/mL
same,MIC,"[1]; read-out: MIC Alone, EMRSA strain 10",0.5 µg/mL
same,MIC,"[1]; read-out: MIC Alone, EMRSA strain 11",0.5 µg/mL
same,MIC,"[1]; read-out: MIC Alone, EMRSA strain 11A",4 µg/mL
same,MIC,"[1]; read-out: MIC Alone, EMRSA strain 12",0.5 µg/mL
same,MIC,"[1]; read-out: MIC Alone, EMRSA strain 12A",0.5 µg/mL
same,MIC,"[1]; read-out: MIC Alone, EMRSA strain 13",0.5 µg/mL
same,MIC,"[1]; read-out: MIC Alone, EMRSA strain 14",0.5 µg/mL
same,MIC,"[1]; read-out: MIC Alone, EMRSA strain 15",0.5 µg/mL
same,MIC,"[1]; read-out: MIC Alone, EMRSA strain 15A",0.5 µg/mL
same,MIC,"[1]; read-out: MIC Alone, EMRSA strain 16",0.5 µg/mL
same,MIC,"[1]; read-out: MIC Alone, EMRSA strain 17",4 µg/mL
same,MIC,"[1]; read-out: MIC Alone, NARSA 1 (Hiramatsu)",8 µg/mL
same,MIC,"[1]; read-out: MIC Alone, NARSA 2 (Hiramatsu)",3 µg/mL
same,MIC,"[1]; read-out: MIC Alone, NARSA 12 (France)",8 µg/mL
same,MIC,"[1]; read-out: MIC Alone, NARSA 17 (New York)",8 µg/mL
same,MIC,"[1]; read-out: MIC Alone, NARSA 119 (Linezolid R)",4 µg/mL
same,MIC,"[1]; read-out: MIC Alone, NARSA 120 (Linezolid R)",4 µg/mL
same,MIC,"[1]; read-out: MIC Alone, NARSA 121 (Linezolid R)",4 µg/mL
same,Survivors at 24 h (n = 10),EMRSA-15 [2]; Group 2: Vancomycin 4.0 mg/kg alone iv,4
same,Survivors at 24 h (n = 10),EMRSA-15 [2]; Group 4: Vancomycin 2.0 mg/kg alone iv,5
same,Mortality,EMRSA-15 [2]; vancomycin alone 2.0 mg/kg,5 deaths
same,Mortality,EMRSA-15 [2]; vancomycin alone 4.0 mg/kg,6 deaths
same,"Liver, number of mice cleared",EMRSA-15 [3]; 10 mice,N/A (8 clear)
same,"Spleen, number of mice cleared",EMRSA-15 [3]; 10 mice,5
same,"Liver, number of mice cleared","EMRSA-15 [3]; 10 mice, listed as vancomycin",8
same,Kidney Log cfu/g of tissue,EMRSA-15 [3]; 48 hours,6.53 ± 1.53 Log cfu/g of tissue
